# Experiments:
# Assay type in all cases: functional
# Pseudomonas aeruginosa [1] = test: Antibacterial activity against Pseudomonas aeruginosa 14-19 after 18 to 24 hrs by CLSI M100-S11 method
# Klebsiella pneumoniae [2] = test: Antibacterial activity against Klebsiella pneumoniae 14-4 after 18 to 24 hrs by CLSI M100-S11 method
# Staphylococcus aureus [3] = test: Antibacterial activity against methicillin-resistant Staphylococcus aureus 14-4 after 18 to 24 hrs by CLSI M100-S11 method
# [4] = tested on: Staphylococcus epidermidis; test: Antibacterial activity against methicillin-resistant Staphylococcus epidermidis 14-39 after 18 to 24 hrs by CLSI M100-S11 method
# Klebsiella pneumoniae [5] = test: Antibacterial activity against Klebsiella pneumoniae 14-2 after 18 to 24 hrs by CLSI M100-S11 method
# [6] = tested on: Staphylococcus epidermidis; test: Antibacterial activity against methicillin-sensitive Staphylococcus epidermidis 14-6 after 18 to 24 hrs by CLSI M100-S11 method
# Pseudomonas aeruginosa [7] = test: Antibacterial activity against Pseudomonas aeruginosa 14-16 after 18 to 24 hrs by CLSI M100-S11 method
# [8] = tested on: Staphylococcus epidermidis; test: Antibacterial activity against methicillin-sensitive Staphylococcus epidermidis 14-4 after 18 to 24 hrs by CLSI M100-S11 method
# Enterococcus faecalis [9] = test: Antibacterial activity against Enterococcus faecalis 14-1 after 18 to 24 hrs by CLSI M100-S11 method
# Staphylococcus aureus [10] = test: Antibacterial activity against methicillin-sensitive Staphylococcus aureus 14-2 after 18 to 24 hrs by CLSI M100-S11 method
# Enterococcus faecium [11] = test: Antibacterial activity against Enterococcus faecium 14-1 after 18 to 24 hrs by CLSI M100-S11 method
# Escherichia coli [12] = test: Antibacterial activity against extended-spectrum beta-lactamase-producing Escherichia coli 14-2 after 18 to 24 hrs by CLSI M100-S11 method
# Escherichia coli [13] = test: Antibacterial activity against Escherichia coli ATCC 25922 after 18 to 24 hrs by CLSI M100-S11 method
# Pseudomonas aeruginosa [14] = test: Antibacterial activity against Pseudomonas aeruginosa 14-14 after 18 to 24 hrs by CLSI M100-S11 method
# Pseudomonas aeruginosa [15] = test: Antibacterial activity against Pseudomonas aeruginosa 14-9 after 18 to 24 hrs by CLSI M100-S11 method
# Staphylococcus aureus [16] = test: Antibacterial activity against methicillin-resistant Staphylococcus aureus 14-5 after 18 to 24 hrs by CLSI M100-S11 method
# Staphylococcus aureus [17] = test: Antibacterial activity against Staphylococcus aureus CMCC 26003 after 18 to 24 hrs by CLSI M100-S11 method
# [18] = tested on: Staphylococcus epidermidis; test: Antibacterial activity against methicillin-resistant Staphylococcus epidermidis 14-37 after 18 to 24 hrs by CLSI M100-S11 method
# [19] = tested on: Staphylococcus epidermidis; test: Antibacterial activity against methicillin-resistant Staphylococcus epidermidis 14-22 after 18 to 24 hrs by CLSI M100-S11 method
# Klebsiella pneumoniae [20] = test: Antibacterial activity against extended-spectrum beta-lactamase-producing Klebsiella pneumoniae 14-18 after 18 to 24 hrs by CLSI M100-S11 method
# [21] = tested on: Staphylococcus epidermidis; test: Antibacterial activity against methicillin-sensitive Staphylococcus epidermidis 14-2 after 18 to 24 hrs by CLSI M100-S11 method
# Enterococcus faecalis [22] = test: Antibacterial activity against Enterococcus faecalis 14-3 after 18 to 24 hrs by CLSI M100-S11 method
# Klebsiella pneumoniae [23] = test: Antibacterial activity against extended-spectrum beta-lactamase-producing Klebsiella pneumoniae 14-19 after 18 to 24 hrs by CLSI M100-S11 method
# Enterococcus faecium [24] = test: Antibacterial activity against Enterococcus faecium 14-2 after 18 to 24 hrs by CLSI M100-S11 method
# Staphylococcus aureus [25] = test: Antibacterial activity against methicillin-sensitive Staphylococcus aureus 14-3 after 18 to 24 hrs by CLSI M100-S11 method
# Escherichia coli [26] = test: Antibacterial activity against Escherichia coli 14-2 after 18 to 24 hrs by CLSI M100-S11 method
# [27] = tested on: Mycobacterium tuberculosis; test: Antimycobacterial activity against Mycobacterium tuberculosis H37Rv ATCC 27294 after 3 days by microplate Alamar Blue assay; settings: H37Rv ATCC 27294, 72 h
# Klebsiella pneumoniae [28] = test: Antibacterial activity against Klebsiella pneumoniae 14-3 after 18 to 24 hrs by CLSI M100-S11 method
# Klebsiella pneumoniae [29] = test: Antibacterial activity against Klebsiella pneumoniae 14-1 after 18 to 24 hrs by CLSI M100-S11 method
# Escherichia coli [30] = test: Antibacterial activity against extended-spectrum beta-lactamase-producing Escherichia coli 14-1 after 18 to 24 hrs by CLSI M100-S11 method
# Escherichia coli [31] = test: Antibacterial activity against Escherichia coli 14-1 after 18 to 24 hrs by CLSI M100-S11 method
# Klebsiella pneumoniae [32] = test: Antibacterial activity against extended-spectrum beta-lactamase-producing Klebsiella pneumoniae 14-17 after 18 to 24 hrs by CLSI M100-S11 method
# Staphylococcus aureus [33] = test: Antibacterial activity against methicillin-sensitive Staphylococcus aureus 14-4 after 18 to 24 hrs by CLSI M100-S11 method
# Enterococcus faecalis [34] = test: Antibacterial activity against Enterococcus faecalis 14-2 after 18 to 24 hrs by CLSI M100-S11 method
# Pseudomonas aeruginosa [35] = test: Antibacterial activity against Pseudomonas aeruginosa 14-15 after 18 to 24 hrs by CLSI M100-S11 method
# Streptococcus pneumoniae = test: Antibacterial activity against Streptococcus pneumoniae ATCC 19615 after 18 to 24 hrs by CLSI M100-S11 method
# Pseudomonas aeruginosa [36] = test: Antibacterial activity against Pseudomonas aeruginosa ATCC 27853 after 18 to 24 hrs by CLSI M100-S11 method
smiles,measurement,setting,value
CO/N=C1\CN(c2nc3c(cc2F)c(=O)c(C(=O)O)cn3-c2nc(N)c(F)cc2F)[C@H]1CN,MIC,Pseudomonas aeruginosa [1],32 µg/mL
same,MIC,Klebsiella pneumoniae [2],> 128 µg/mL
same,MIC,Staphylococcus aureus [3],> 128 µg/mL
same,MIC,[4],> 128 µg/mL
same,MIC,Klebsiella pneumoniae [5],> 128 µg/mL
same,MIC,[6],64 µg/mL
same,MIC,Pseudomonas aeruginosa [7],32 µg/mL
same,MIC,[8],64 µg/mL
same,MIC,Enterococcus faecalis [9],> 128 µg/mL
same,MIC,Staphylococcus aureus [10],8 µg/mL
same,MIC,Enterococcus faecium [11],> 128 µg/mL
same,MIC,Escherichia coli [12],> 128 µg/mL
same,MIC,Escherichia coli [13],2 µg/mL
same,MIC,Pseudomonas aeruginosa [14],64 µg/mL
same,MIC,Pseudomonas aeruginosa [15],32 µg/mL
same,MIC,Staphylococcus aureus [16],> 128 µg/mL
same,MIC,Staphylococcus aureus [17],4 µg/mL
same,MIC,[18],> 128 µg/mL
same,MIC,[19],> 128 µg/mL
same,MIC,Klebsiella pneumoniae [20],64 µg/mL
same,MIC,[21],> 128 µg/mL
same,MIC,Enterococcus faecalis [22],> 128 µg/mL
same,MIC,Klebsiella pneumoniae [23],> 128 µg/mL
same,MIC,Enterococcus faecium [24],128 µg/mL
same,MIC,Staphylococcus aureus [25],8 µg/mL
same,MIC,Escherichia coli [26],> 128 µg/mL
same,MIC,[27],> 32 µg/mL
same,MIC,Klebsiella pneumoniae [28],> 128 µg/mL
same,MIC,Klebsiella pneumoniae [29],> 128 µg/mL
same,MIC,Escherichia coli [30],64 µg/mL
same,MIC,Escherichia coli [31],> 128 µg/mL
same,MIC,Klebsiella pneumoniae [32],> 128 µg/mL
same,MIC,Staphylococcus aureus [33],4 µg/mL
same,MIC,Enterococcus faecalis [34],> 128 µg/mL
same,MIC,Pseudomonas aeruginosa [35],64 µg/mL
same,MIC,Streptococcus pneumoniae,64 µg/mL
same,MIC,Pseudomonas aeruginosa [36],16 µg/mL
CCO/N=C1\CN(c2nc3c(cc2F)c(=O)c(C(=O)O)cn3-c2nc(N)c(F)cc2F)[C@H]1CN,MIC,Pseudomonas aeruginosa [1],64 µg/mL
same,MIC,Klebsiella pneumoniae [2],128 µg/mL
same,MIC,Staphylococcus aureus [3],> 128 µg/mL
same,MIC,[4],> 129 µg/mL
same,MIC,Klebsiella pneumoniae [5],> 128 µg/mL
same,MIC,[6],128 µg/mL
same,MIC,Pseudomonas aeruginosa [7],64 µg/mL
same,MIC,[8],64 µg/mL
same,MIC,Enterococcus faecalis [9],> 128 µg/mL
same,MIC,Staphylococcus aureus [10],4 µg/mL
same,MIC,Enterococcus faecium [11],> 128 µg/mL
same,MIC,Escherichia coli [12],> 128 µg/mL
same,MIC,Escherichia coli [13],2 µg/mL
same,MIC,Pseudomonas aeruginosa [14],64 µg/mL
same,MIC,Pseudomonas aeruginosa [15],32 µg/mL
same,MIC,Staphylococcus aureus [16],> 128 µg/mL
same,MIC,Staphylococcus aureus [17],2 µg/mL
same,MIC,[18],> 128 µg/mL
same,MIC,[19],> 128 µg/mL
same,MIC,Klebsiella pneumoniae [20],64 µg/mL
same,MIC,[21],> 128 µg/mL
same,MIC,Enterococcus faecalis [22],> 128 µg/mL
same,MIC,Klebsiella pneumoniae [23],> 128 µg/mL
same,MIC,Enterococcus faecium [24],32 µg/mL
same,MIC,Staphylococcus aureus [25],8 µg/mL
same,MIC,Escherichia coli [26],> 128 µg/mL
same,MIC,[27],> 32 µg/mL
same,MIC,Klebsiella pneumoniae [28],> 128 µg/mL
same,MIC,Klebsiella pneumoniae [29],> 128 µg/mL
same,MIC,Escherichia coli [30],64 µg/mL
same,MIC,Escherichia coli [31],> 128 µg/mL
same,MIC,Klebsiella pneumoniae [32],> 128 µg/mL
same,MIC,Staphylococcus aureus [33],4 µg/mL
same,MIC,Enterococcus faecalis [34],> 128 µg/mL
same,MIC,Pseudomonas aeruginosa [35],64 µg/mL
same,MIC,Streptococcus pneumoniae,32 µg/mL
same,MIC,Pseudomonas aeruginosa [36],16 µg/mL
CO/N=C1\CN(c2nc3c(cc2F)c(=O)c(C(=O)O)cn3-c2nc(N)c(F)cc2F)[C@@H]1CN,MIC,Pseudomonas aeruginosa [1],64 µg/mL
same,MIC,Klebsiella pneumoniae [2],> 128 µg/mL
same,MIC,Staphylococcus aureus [3],> 128 µg/mL
same,MIC,[4],> 131 µg/mL
same,MIC,Klebsiella pneumoniae [5],> 128 µg/mL
same,MIC,[6],> 128 µg/mL
same,MIC,Pseudomonas aeruginosa [7],64 µg/mL
same,MIC,[8],> 128 µg/mL
same,MIC,Enterococcus faecalis [9],> 128 µg/mL
same,MIC,Staphylococcus aureus [10],32 µg/mL
same,MIC,Enterococcus faecium [11],> 128 µg/mL
same,MIC,Escherichia coli [12],> 128 µg/mL
same,MIC,Escherichia coli [13],16 µg/mL
same,MIC,Pseudomonas aeruginosa [14],64 µg/mL
same,MIC,Pseudomonas aeruginosa [15],64 µg/mL
same,MIC,Staphylococcus aureus [16],> 128 µg/mL
same,MIC,Staphylococcus aureus [17],16 µg/mL
same,MIC,[18],> 128 µg/mL
same,MIC,[19],> 128 µg/mL
same,MIC,Klebsiella pneumoniae [20],64 µg/mL
same,MIC,[21],> 128 µg/mL
same,MIC,Enterococcus faecalis [22],> 128 µg/mL
same,MIC,Klebsiella pneumoniae [23],> 128 µg/mL
same,MIC,Enterococcus faecium [24],64 µg/mL
same,MIC,Staphylococcus aureus [25],32 µg/mL
same,MIC,Escherichia coli [26],> 128 µg/mL
same,MIC,[27],> 32 µg/mL
same,MIC,Klebsiella pneumoniae [28],> 128 µg/mL
same,MIC,Klebsiella pneumoniae [29],> 128 µg/mL
same,MIC,Escherichia coli [30],> 128 µg/mL
same,MIC,Escherichia coli [31],> 128 µg/mL
same,MIC,Klebsiella pneumoniae [32],> 128 µg/mL
same,MIC,Staphylococcus aureus [33],16 µg/mL
same,MIC,Enterococcus faecalis [34],> 128 µg/mL
same,MIC,Pseudomonas aeruginosa [35],64 µg/mL
same,MIC,Streptococcus pneumoniae,128 µg/mL
same,MIC,Pseudomonas aeruginosa [36],64 µg/mL
CC1(CN)CN(c2nc3c(cc2F)c(=O)c(C(=O)O)cn3-c2nc(N)c(F)cc2F)C/C1=N\OCc1ccccc1 (stereo not drawn),MIC,Pseudomonas aeruginosa [1],128 µg/mL
same,MIC,Klebsiella pneumoniae [2],> 128 µg/mL
same,MIC,Staphylococcus aureus [3],64 µg/mL
same,MIC,[4],> 128 µg/mL
same,MIC,Klebsiella pneumoniae [5],> 128 µg/mL
same,MIC,[6],> 128 µg/mL
same,MIC,Pseudomonas aeruginosa [7],128 µg/mL
same,MIC,[8],> 128 µg/mL
same,MIC,Enterococcus faecalis [9],> 128 µg/mL
same,MIC,Staphylococcus aureus [10],0.25 µg/mL
same,MIC,Enterococcus faecium [11],> 128 µg/mL
same,MIC,Escherichia coli [12],> 128 µg/mL
same,MIC,Escherichia coli [13],16 µg/mL
same,MIC,Pseudomonas aeruginosa [14],128 µg/mL
same,MIC,Pseudomonas aeruginosa [15],128 µg/mL
same,MIC,Staphylococcus aureus [16],64 µg/mL
same,MIC,Staphylococcus aureus [17],0.25 µg/mL
same,MIC,[18],> 128 µg/mL
same,MIC,[19],64 µg/mL
same,MIC,Klebsiella pneumoniae [20],> 128 µg/mL
same,MIC,[21],> 128 µg/mL
same,MIC,Enterococcus faecalis [22],> 128 µg/mL
same,MIC,Klebsiella pneumoniae [23],> 128 µg/mL
same,MIC,Enterococcus faecium [24],8 µg/mL
same,MIC,Staphylococcus aureus [25],8 µg/mL
same,MIC,Escherichia coli [26],128 µg/mL
same,MIC,[27],15.6 µg/mL
same,MIC,Klebsiella pneumoniae [28],> 128 µg/mL
same,MIC,Klebsiella pneumoniae [29],> 128 µg/mL
same,MIC,Escherichia coli [30],64 µg/mL
same,MIC,Escherichia coli [31],> 128 µg/mL
same,MIC,Klebsiella pneumoniae [32],> 128 µg/mL
same,MIC,Staphylococcus aureus [33],4 µg/mL
same,MIC,Enterococcus faecalis [34],> 128 µg/mL
same,MIC,Pseudomonas aeruginosa [35],128 µg/mL
same,MIC,Streptococcus pneumoniae,32 µg/mL
same,MIC,Pseudomonas aeruginosa [36],128 µg/mL

# — ChEMBL document CHEMBL3797178, “Synthesis, antimycobacterial and antibacterial activity of 1-(6-amino-3,5-difluoropyridin-2-yl)fluoroquinolone derivatives containing an oxime functional moiety” (2016)
